Laboratory results as given in US20020173541A1, “Arthropod-controlling composition” (SUMITOMO CHEMICAL COMPANY, LIMITED, priority 2001, published 2002).

Tested on: adult German cockroaches
Experiment: Knock-down test: oil solution sprayed on adult German cockroaches
Type: in vivo, Blattella germanica (German cockroach)
Procedure: According to Production example 7, each of the 0.5% oil solutions of The Pyrone Compound and Reference compound 1 was prepared. A square of paper (side: 20 cm) was covered on the iron net set on the bottom of the metallic chamber (46 cm×46 cm, 70 cm in height). A container (8.75 cm in diameter, 7.5 cm in height, having 16-mesh net at the bottom and spreading butter on the wall for preventing escape) was set on the paper. In the container, ten (5 males and 5 females) adult German cockroaches were released. By means of spray gun, 1.5 ml of the above oil solution was applied to the test insects at pressure of 4.1×10^4 Pa from the upper part of the chamber. The container was taken out of the chamber 30 seconds after spraying and the test insects were transferred to a plastic cup. Two minutes after spraying, the knocked-down cockroaches were counted. According to Production example 7, each of the 0.25% oil solutions of The Pyrone Compound and Reference compounds 2 and 3 was prepared. The same procedures as Test Example 1 gave the knock-down percentages and KT50 values (minutes for knocked-down 50% of cockroaches) in Table 2.

[1] = 0.25% oil solution, same procedures as Test Example 1, average of 6 (The Pyrone Compound) or 3 (references) repetitions
[2] = 0.5% oil solution, 1.5 ml sprayed, knocked-down cockroaches counted two minutes after spraying

SMILES	KT50 (minutes for knocked-down 50% of cockroaches) [1]	Knock-down percentage (%) [1]	Knock-down percentage (%) [2]
CCC(CC)C(=O)c1c(O)cc(C)oc1=O [Reference compound 2, 4-hydroxy-6-methyl-3-(2-ethylbutanoyl)-2-pyrone]	more than 10 minutes	0%	–
Cc1cc(O)c(C(=O)C2CC2)c(=O)o1 [Reference compound 3, 4-hydroxy-6-methyl-3-(cyclopropanecarbonyl) -2-pyrone]	more than 10 minutes	6.7%	–
Cc1cc(O)c(C(=O)C(C)C)c(=O)o1 [Reference compound 1, 4-hydroxy-6-methyl-3-(2-methylpropanoyl)-2-pyrone]	–	–	10%
Cc1cc(O)c(C(=O)CC(C)C)c(=O)o1 [The Pyrone Compound, 4-hydroxy-6-methyl-3-(3-methylbutanoyl)-2-pyrone]	0.85 min	95%	100%
